Measurements taken from patent US20220386606A1, “SPECIFICALLY SUBSTITUTED 3-PHENYL-5-SPIROCYCLOPENTYL-3-PYRROLIN-2-ONES AND THEIR USE AS HERBICIDES” (Bayer Aktiengesellschaft, priority 2019, published 2022).

Experiments:
ALOMY [1] = experiment: Pre-emergence herbicidal action against ALOMY; assay type: in vivo, Alopecurus myosuroides; settings: 320 g/ha, scored visually after 3 weeks vs untreated controls
Outline: (§1)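 Pre-emergence soil-surface application: WP/EC in water, 600 to 800 L/ha, + 0.2% wetting agent, onto soil-covered seeds in sandy loam. Greenhouse, 3 wk. Visual % activity vs untreated (100% = dead).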

AVEFA [2] = experiment: Pre-emergence herbicidal action against AVEFA; assay type: in vivo, Avena fatua; settings: 320 g/ha, scored visually after 3 weeks vs untreated controls
Outline: as §1

DIGSA [3] = experiment: Pre-emergence herbicidal action against DIGSA; assay type: in vivo, Digitaria sanguinalis; settings: 320 g/ha, scored visually after 3 weeks vs untreated controls
Outline: as §1

ECHCG [4] = experiment: Pre-emergence herbicidal action against ECHCG; assay type: in vivo, Echinochloa crus-galli; settings: 320 g/ha, scored visually after 3 weeks vs untreated controls
Outline: as §1

LOLRI [5] = experiment: Pre-emergence herbicidal action against LOLRI (Table 8, titled post-emergence at 320 g/ha); assay type: in vivo, Lolium rigidum; settings: table stands in the pre-emergence section
Outline: as §1

SETVI [6] = experiment: Pre-emergence herbicidal action against SETVI; assay type: in vivo, Setaria viridis; settings: 320 g/ha, scored visually after 3 weeks vs untreated controls
Outline: as §1

POLCO = experiment: Pre-emergence herbicidal action against POLCO; assay type: in vivo, Polygonum convolvulus; settings: 320 g/ha
Outline: as §1

VIOTR [7] = experiment: Pre-emergence herbicidal action against VIOTR; assay type: in vivo, Viola tricolor; settings: 320 g/ha
Outline: as §1

VERPE = experiment: Pre-emergence herbicidal action against VERPE; assay type: in vivo, Veronica persica; settings: 320 g/ha
Outline: as §1

ALOMY [8] = experiment: Post-emergence herbicidal action against ALOMY; assay type: in vivo, Alopecurus myosuroides; settings: 80 g/ha, visual assessment after about 3 weeks
Outline: (§2)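 Weeds and crops grown in sandy loam in the greenhouse, treated post-emergence at the one-leaf stage (2–3 weeks after sowing). WP or EC formulations sprayed as aqueous suspension/emulsion at 600–800 l/ha water with 0.2% wetting agent. Visual % activity scored after about 3 weeks versus untreated controls (100% = dead, 0% = like control).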

AVEFA [9] = experiment: Post-emergence herbicidal action against AVEFA; assay type: in vivo, Avena fatua; settings: 80 g/ha, visual assessment after about 3 weeks
Outline: as §2

DIGSA [10] = experiment: Post-emergence herbicidal action against DIGSA; assay type: in vivo, Digitaria sanguinalis; settings: 80 g/ha, visual assessment about 3 weeks after treatment vs untreated controls
Outline: as §2

ECHCG [11] = experiment: Post-emergence herbicidal action against ECHCG; assay type: in vivo, Echinochloa crus-galli; settings: 80 g/ha, visual assessment about 3 weeks after treatment vs untreated controls
Outline: as §2

LOLRI [12] = experiment: Post-emergence herbicidal action against LOLRI; assay type: in vivo, Lolium rigidum; settings: 80 g/ha, visual assessment about 3 weeks after treatment vs untreated controls
Outline: as §2

SETVI [13] = experiment: Post-emergence herbicidal action against SETVI; assay type: in vivo, Setaria viridis; settings: 80 g/ha, visual assessment about 3 weeks after treatment vs untreated controls
Outline: as §2

VIOTR [14] = experiment: Post-emergence herbicidal action against VIOTR; assay type: in vivo, Viola tricolor; settings: 80 g/ha, visual assessment about 3 weeks after treatment vs untreated controls
Experimental: Seeds of monocotyledonous and dicotyledonous weed and crop plants are laid out in sandy loam soil in wood-fiber pots, covered with soil and cultivated in a greenhouse under good growth conditions. 2 to 3 weeks after sowing, the test plants are treated at the one-leaf stage. The compounds of the invention, formulated in the form of wettable powders (WP) or as emulsion concentrates (EC), are then sprayed onto the green parts of the plants as aqueous suspension or emulsion at a water application rate equating to 600 to 800 l/ha with addition of 0.2% wetting agent. After the test plants have been left to stand in the greenhouse under optimal growth conditions for about 3 weeks, the action of the preparations is assessed visually in comparison to untreated controls (herbicidal action in percent (%): 100% activity=the plants have died, 0% activity=like control plants).

AMARE = experiment: Pre-emergence herbicidal action against AMARE; assay type: in vivo, Amaranthus retroflexus; settings: 320 g/ha
Outline: as §1

MATIN = experiment: Pre-emergence herbicidal action against MATIN; assay type: in vivo; settings: 320 g/ha
Outline: as §1

ABUTH = experiment: Post-emergence herbicidal action against ABUTH; assay type: in vivo, Abutylon threophrasti; settings: 80 g/ha, visual assessment about 3 weeks after treatment vs untreated controls
Outline: as §2

Row | SMILES | Pre-emergence action against ALOMY in % (ALOMY [1]) [%] | Pre-emergence action against AVEFA in % (AVEFA [2]) [%] | Pre-emergence action against DIGSA in % (DIGSA [3]) [%] | Pre-emergence action against ECHCG in % (ECHCG [4]) [%] | Pre-emergence herbicidal action against LOLRI in % (LOLRI [5]) [%] | Pre-emergence action against SETVI in % (SETVI [6]) [%] | Pre-emergence action against POLCO in % (POLCO) [%] | Pre-emergence action against VIOTR in % (VIOTR [7]) [%] | Pre-emergence action against VERPE in % (VERPE) [%] | Post-emergence action against ALOMY in % (ALOMY [8]) [%] | Post-emergence action against AVEFA in % (AVEFA [9]) [%] | Post-emergence action against DIGSA in % (DIGSA [10]) [%] | Post-emergence action against ECHCG in % (ECHCG [11]) [%] | Post-emergence action against LOLRI in % (LOLRI [12]) [%] | Post-emergence action against SETVI in % (SETVI [13]) [%] | Post-emergence action against VIOTR in % (VIOTR [14]) [%] | Pre-emergence action against AMARE in % (AMARE) [%] | Pre-emergence action against MATIN in % (MATIN) [%] | Post-emergence action against ABUTH in % (ABUTH) [%]
1 | C=CCOCC1CCC2(C1)NC(=O)C(c1c(C)cc(C#CC)cc1Cl)=C2OC(=O)OCC (stereo not drawn) [Example P-71] | 100 | 90 | 100 | 100 | 100 | 100 | 90 | 100 | 90 | 80 | 80 | 90 | 100 | 80 | 100 | 100 |  |  | 
2 | C=CCOCC1CCC2(C1)NC(=O)C(c1c(C)cc(C#CC)cc1Cl)=C2OC(=O)OCC (stereo not drawn) [Example P-72] | 90 |  | 100 | 100 | 100 | 100 | 100 | 100 | 80 | 80 |  | 90 | 100 | 80 | 100 | 90 |  |  | 
3 | CC#Cc1cc(C)c(C2=C(O)C3(CCC(COC)C3)NC2=O)c(Br)c1 (stereo not drawn) [Example I-19] | 100 | 100 | 100 | 100 | 100 | 100 | 100 | 100 |  | 100 | 90 | 100 | 100 | 100 | 100 | 80 | 100 | 80 | 90
4 | CC#Cc1cc(F)c(C2=C(OC(=O)OCC)C3(CCC(COCCC)C3)NC2=O)c(OC)c1 (stereo not drawn) [Example P-82] | 100 | 90 | 100 | 100 | 100 | 100 | 100 | 90 |  | 100 |  | 90 | 100 | 100 | 100 | 80 | 90 |  | 
